In ChEMBL document CHEMBL4507303, “Data for DCP probe TP-004” (2021):
The source made the active and inactive calls.

How the values were obtained:
[1] = target: Ribosomal protein S6 kinase alpha-5 (Homo sapiens) (UniProt O75582); conditions: Compound concentration 1000.0 nM
[2] = target: Calcium/calmodulin-dependent protein kinase kinase 1 (Homo sapiens) (UniProt Q8N5S9); conditions: Compound concentration 1000.0 nM
[3] = target: Dual serine/threonine and tyrosine protein kinase (Homo sapiens) (UniProt Q6XUX3); conditions: Compound concentration 1000.0 nM
[4] = target: Inhibitor of nuclear factor kappa-B kinase subunit epsilon (Homo sapiens) (UniProt Q14164); conditions: Compound concentration 1000.0 nM
[5] = target: Microtubule-associated serine/threonine-protein kinase 1 (Homo sapiens) (UniProt Q9Y2H9); conditions: Compound concentration 1000.0 nM
[6] = target: Serine/threonine-protein kinase PAK 5 (Homo sapiens) (UniProt Q9P286); conditions: Compound concentration 1000.0 nM
[7] = target: Mitogen-activated protein kinase 1 (Homo sapiens) (UniProt P28482); conditions: Compound concentration 1000.0 nM
[8] = target: Cyclin-dependent kinase-like 3 (Homo sapiens) (UniProt Q8IVW4); conditions: Compound concentration 1000.0 nM
[9] = target: Activin receptor type-2A (Homo sapiens) (UniProt P27037); conditions: Compound concentration 1000.0 nM
[10] = target: Muscarinic acetylcholine receptor M3 (Homo sapiens) (UniProt P20309); conditions: Compound concentration 10.0 uM
[11] = target: Homeodomain-interacting protein kinase 3 (Homo sapiens) (UniProt Q9H422); conditions: Compound concentration 1000.0 nM
[12] = target: GABA-A receptor; anion channel; test: GPCRScan assay: inhibition of GABAA/BZP; format: protein-complex assay, Rattus norvegicus; parameters: radioligand conc. used [nm] 0.6 – 4.0, parental cells brain tissue
[13] = target: Ephrin type-B receptor 3 (Homo sapiens) (UniProt P54753); conditions: Compound concentration 1000.0 nM
[14] = tested on: Phosphatidylinositol 4,5-bisphosphate 3-kinase catalytic subunit alpha isoform (Homo sapiens), P42336 [H1047Y]; conditions: Compound concentration 1000.0 nM
[15] = target: Mast/stem cell growth factor receptor Kit (Homo sapiens) (UniProt P10721); conditions: Compound concentration 1000.0 nM
[16] = target: Mitogen-activated protein kinase 8 (Homo sapiens) (UniProt P45983); conditions: Compound concentration 1000.0 nM
[17] = tested on: Phosphatidylinositol 4,5-bisphosphate 3-kinase catalytic subunit alpha isoform (Homo sapiens), P42336 [E545A]; conditions: Compound concentration 1000.0 nM
[18] = tested on: Tyrosine-protein kinase ABL1 (Homo sapiens), P00519 [F317L]; conditions: Compound concentration 1000.0 nM
[19] = target: Tyrosine-protein kinase receptor Tie-1 (Homo sapiens) (UniProt P35590); conditions: Compound concentration 1000.0 nM
[20] = target: Ephrin type-A receptor 2 (Homo sapiens) (UniProt P29317); conditions: Compound concentration 1000.0 nM
[21] = target: TGF-beta receptor type-2 (Homo sapiens) (UniProt P37173); conditions: Compound concentration 1000.0 nM
[22] = target: Serine/threonine-protein kinase PLK2 (Homo sapiens) (UniProt Q9NYY3); conditions: Compound concentration 1000.0 nM
[23] = tested on: Mast/stem cell growth factor receptor Kit (Homo sapiens), P10721 [L576P]; conditions: Compound concentration 1000.0 nM
[24] = target: Ephrin type-A receptor 7 (Homo sapiens) (UniProt Q15375); conditions: Compound concentration 1000.0 nM
[25] = target: Serine/threonine-protein kinase DCLK2 (Homo sapiens) (UniProt Q8N568); conditions: Compound concentration 1000.0 nM
[26] = target: Alpha-1A adrenergic receptor (Homo sapiens) (UniProt P35348); conditions: Compound concentration 10.0 uM
[27] = target: Methionine aminopeptidase 2 (Homo sapiens, UniProt P50579); test: Biochemical activity-MetAP2 using Co
[28] = target: SRSF protein kinase 3 (Homo sapiens) (UniProt Q9UPE1); conditions: Compound concentration 1000.0 nM
[29] = target: Dual specificity protein kinase CLK4 (Homo sapiens) (UniProt Q9HAZ1); conditions: Compound concentration 1000.0 nM
[30] = target: Ephrin type-A receptor 3 (Homo sapiens) (UniProt P29320); conditions: Compound concentration 1000.0 nM
[31] = target: Serine/threonine-protein kinase 38 (Homo sapiens) (UniProt Q15208); conditions: Compound concentration 1000.0 nM
[32] = target: Serine/threonine-protein kinase Chk1 (Homo sapiens) (UniProt O14757); conditions: Compound concentration 1000.0 nM
[33] = target: Serine/threonine-protein kinase Nek10 (Homo sapiens) (UniProt Q6ZWH5); conditions: Compound concentration 1000.0 nM
[34] = target: Serine/threonine-protein kinase Sgk2 (Homo sapiens) (UniProt Q9HBY8); conditions: Compound concentration 1000.0 nM
[35] = target: Phosphatidylinositol 4-phosphate 5-kinase type-1 gamma (Homo sapiens) (UniProt O60331); conditions: Compound concentration 1000.0 nM
[36] = target: Rhodopsin kinase GRK7 (Homo sapiens) (UniProt Q8WTQ7); conditions: Compound concentration 1000.0 nM
[37] = target: Mitogen-activated protein kinase kinase kinase 4 (Homo sapiens) (UniProt Q9Y6R4); conditions: Compound concentration 1000.0 nM
[38] = target: Histamine H4 receptor (Homo sapiens) (UniProt Q9H3N8); conditions: Compound concentration 10.0 uM
[39] = target: Death-associated protein kinase 1 (Homo sapiens) (UniProt P53355); conditions: Compound concentration 1000.0 nM
[40] = target: Alpha-2B adrenergic receptor (Homo sapiens) (UniProt P18089); conditions: Compound concentration 10.0 uM
[41] = target: Eukaryotic translation initiation factor 2-alpha kinase 1 (Homo sapiens) (UniProt Q9BQI3); conditions: Compound concentration 1000.0 nM
[42] = target: Cyclin-G-associated kinase (Homo sapiens) (UniProt O14976); conditions: Compound concentration 1000.0 nM
[43] = target: Rho-associated protein kinase 2 (Homo sapiens) (UniProt O75116); conditions: Compound concentration 1000.0 nM
[44] = target: Ribosomal protein S6 kinase beta-1 (Homo sapiens) (UniProt P23443); conditions: Compound concentration 1000.0 nM
[45] = target: TRAF2 and NCK-interacting protein kinase (Homo sapiens) (UniProt Q9UKE5); conditions: Compound concentration 1000.0 nM
[46] = target: Cyclin-dependent kinase 16 (Homo sapiens) (UniProt Q00536); conditions: Compound concentration 1000.0 nM

Serine/threonine-protein kinase DCLK2 (Homo sapiens), sequence (Q8N568 whole entry): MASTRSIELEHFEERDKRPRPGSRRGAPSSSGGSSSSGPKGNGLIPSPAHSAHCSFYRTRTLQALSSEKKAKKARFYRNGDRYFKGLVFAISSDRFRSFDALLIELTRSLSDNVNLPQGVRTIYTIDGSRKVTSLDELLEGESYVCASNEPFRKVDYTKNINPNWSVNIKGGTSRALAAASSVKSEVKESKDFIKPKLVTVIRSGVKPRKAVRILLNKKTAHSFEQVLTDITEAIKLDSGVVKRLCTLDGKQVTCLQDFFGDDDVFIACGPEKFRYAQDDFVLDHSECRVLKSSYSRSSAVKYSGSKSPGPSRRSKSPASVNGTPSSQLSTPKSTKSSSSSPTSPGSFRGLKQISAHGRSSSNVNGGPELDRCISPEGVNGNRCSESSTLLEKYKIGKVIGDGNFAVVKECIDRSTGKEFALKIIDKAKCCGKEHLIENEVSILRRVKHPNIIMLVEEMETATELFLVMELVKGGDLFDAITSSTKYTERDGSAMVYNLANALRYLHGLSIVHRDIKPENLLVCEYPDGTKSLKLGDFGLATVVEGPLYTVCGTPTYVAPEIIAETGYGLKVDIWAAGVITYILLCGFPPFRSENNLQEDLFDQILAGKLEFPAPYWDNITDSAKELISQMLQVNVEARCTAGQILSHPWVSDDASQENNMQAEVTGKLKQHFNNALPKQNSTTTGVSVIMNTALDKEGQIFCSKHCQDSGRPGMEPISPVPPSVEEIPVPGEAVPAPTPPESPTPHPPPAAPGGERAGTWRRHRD
Phosphatidylinositol 4-phosphate 5-kinase type-1 gamma (Homo sapiens), sequence (O60331 whole entry): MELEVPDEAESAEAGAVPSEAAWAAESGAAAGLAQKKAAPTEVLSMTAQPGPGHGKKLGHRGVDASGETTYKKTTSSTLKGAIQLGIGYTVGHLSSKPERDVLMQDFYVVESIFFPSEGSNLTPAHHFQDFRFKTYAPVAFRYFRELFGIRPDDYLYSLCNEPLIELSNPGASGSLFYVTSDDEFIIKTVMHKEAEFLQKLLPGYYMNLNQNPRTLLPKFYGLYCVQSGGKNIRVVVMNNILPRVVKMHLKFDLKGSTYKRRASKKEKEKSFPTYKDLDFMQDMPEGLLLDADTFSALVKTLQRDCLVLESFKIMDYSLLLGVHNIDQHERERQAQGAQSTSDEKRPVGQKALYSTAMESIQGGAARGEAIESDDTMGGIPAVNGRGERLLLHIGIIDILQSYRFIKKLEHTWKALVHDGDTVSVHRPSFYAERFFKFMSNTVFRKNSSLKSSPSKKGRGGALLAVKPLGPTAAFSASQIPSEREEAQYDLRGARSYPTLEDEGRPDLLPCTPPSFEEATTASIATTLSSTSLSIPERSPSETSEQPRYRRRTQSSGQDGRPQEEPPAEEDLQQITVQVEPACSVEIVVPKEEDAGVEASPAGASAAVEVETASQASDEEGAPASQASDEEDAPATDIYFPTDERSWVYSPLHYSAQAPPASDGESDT
Serine/threonine-protein kinase Chk1 (Homo sapiens), sequence (O14757 whole entry): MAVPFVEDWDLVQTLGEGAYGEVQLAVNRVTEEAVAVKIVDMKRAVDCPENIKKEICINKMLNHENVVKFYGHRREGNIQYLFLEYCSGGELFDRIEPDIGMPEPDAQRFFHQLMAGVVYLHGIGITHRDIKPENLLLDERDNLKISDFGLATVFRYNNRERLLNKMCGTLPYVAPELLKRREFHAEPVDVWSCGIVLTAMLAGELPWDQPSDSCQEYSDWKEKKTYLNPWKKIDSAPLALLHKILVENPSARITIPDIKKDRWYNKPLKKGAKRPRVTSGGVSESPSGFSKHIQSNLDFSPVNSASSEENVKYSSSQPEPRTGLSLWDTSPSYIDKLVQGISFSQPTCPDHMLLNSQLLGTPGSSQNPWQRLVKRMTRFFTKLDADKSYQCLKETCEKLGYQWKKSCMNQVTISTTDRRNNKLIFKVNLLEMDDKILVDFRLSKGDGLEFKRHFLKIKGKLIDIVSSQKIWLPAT
Alpha-1A adrenergic receptor (Homo sapiens), sequence (P35348 whole entry): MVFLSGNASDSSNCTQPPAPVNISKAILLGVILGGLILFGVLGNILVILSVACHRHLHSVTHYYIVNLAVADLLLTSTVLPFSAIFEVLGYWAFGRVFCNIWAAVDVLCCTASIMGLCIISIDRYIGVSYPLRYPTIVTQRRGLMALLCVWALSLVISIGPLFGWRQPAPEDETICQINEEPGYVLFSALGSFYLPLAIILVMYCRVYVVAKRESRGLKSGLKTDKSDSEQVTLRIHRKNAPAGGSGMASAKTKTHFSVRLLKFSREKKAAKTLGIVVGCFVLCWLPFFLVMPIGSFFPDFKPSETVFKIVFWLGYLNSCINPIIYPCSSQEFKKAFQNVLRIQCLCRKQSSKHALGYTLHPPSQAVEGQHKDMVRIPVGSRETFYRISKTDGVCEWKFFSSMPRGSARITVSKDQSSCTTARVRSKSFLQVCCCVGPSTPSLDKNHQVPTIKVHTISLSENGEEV
Ephrin type-A receptor 2 (Homo sapiens), sequence (P29317 whole entry): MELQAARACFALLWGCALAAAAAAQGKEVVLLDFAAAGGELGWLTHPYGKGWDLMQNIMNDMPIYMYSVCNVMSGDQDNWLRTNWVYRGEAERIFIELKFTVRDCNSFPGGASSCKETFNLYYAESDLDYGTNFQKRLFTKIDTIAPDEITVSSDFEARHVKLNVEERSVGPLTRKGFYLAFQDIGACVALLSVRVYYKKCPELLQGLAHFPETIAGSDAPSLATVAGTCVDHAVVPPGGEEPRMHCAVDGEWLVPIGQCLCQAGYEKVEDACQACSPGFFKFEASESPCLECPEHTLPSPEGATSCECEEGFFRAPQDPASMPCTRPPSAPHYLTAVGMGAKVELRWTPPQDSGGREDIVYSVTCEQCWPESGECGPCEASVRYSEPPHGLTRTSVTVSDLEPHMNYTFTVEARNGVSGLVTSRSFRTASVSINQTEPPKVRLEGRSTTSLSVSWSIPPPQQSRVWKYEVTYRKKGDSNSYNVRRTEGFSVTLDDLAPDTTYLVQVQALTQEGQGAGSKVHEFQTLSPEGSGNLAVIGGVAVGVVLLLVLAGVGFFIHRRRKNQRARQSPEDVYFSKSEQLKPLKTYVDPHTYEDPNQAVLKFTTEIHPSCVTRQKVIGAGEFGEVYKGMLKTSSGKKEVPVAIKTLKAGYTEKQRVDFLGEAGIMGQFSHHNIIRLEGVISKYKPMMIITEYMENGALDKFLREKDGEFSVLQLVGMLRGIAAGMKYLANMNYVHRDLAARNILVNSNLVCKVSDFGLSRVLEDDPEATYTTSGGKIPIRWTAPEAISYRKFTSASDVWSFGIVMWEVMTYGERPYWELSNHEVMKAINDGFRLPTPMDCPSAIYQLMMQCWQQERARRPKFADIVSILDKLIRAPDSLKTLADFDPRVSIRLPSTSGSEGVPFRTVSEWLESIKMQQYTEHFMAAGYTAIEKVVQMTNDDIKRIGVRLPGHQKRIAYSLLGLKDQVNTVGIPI
Mast/stem cell growth factor receptor Kit (Homo sapiens), sequence (P10721 whole entry): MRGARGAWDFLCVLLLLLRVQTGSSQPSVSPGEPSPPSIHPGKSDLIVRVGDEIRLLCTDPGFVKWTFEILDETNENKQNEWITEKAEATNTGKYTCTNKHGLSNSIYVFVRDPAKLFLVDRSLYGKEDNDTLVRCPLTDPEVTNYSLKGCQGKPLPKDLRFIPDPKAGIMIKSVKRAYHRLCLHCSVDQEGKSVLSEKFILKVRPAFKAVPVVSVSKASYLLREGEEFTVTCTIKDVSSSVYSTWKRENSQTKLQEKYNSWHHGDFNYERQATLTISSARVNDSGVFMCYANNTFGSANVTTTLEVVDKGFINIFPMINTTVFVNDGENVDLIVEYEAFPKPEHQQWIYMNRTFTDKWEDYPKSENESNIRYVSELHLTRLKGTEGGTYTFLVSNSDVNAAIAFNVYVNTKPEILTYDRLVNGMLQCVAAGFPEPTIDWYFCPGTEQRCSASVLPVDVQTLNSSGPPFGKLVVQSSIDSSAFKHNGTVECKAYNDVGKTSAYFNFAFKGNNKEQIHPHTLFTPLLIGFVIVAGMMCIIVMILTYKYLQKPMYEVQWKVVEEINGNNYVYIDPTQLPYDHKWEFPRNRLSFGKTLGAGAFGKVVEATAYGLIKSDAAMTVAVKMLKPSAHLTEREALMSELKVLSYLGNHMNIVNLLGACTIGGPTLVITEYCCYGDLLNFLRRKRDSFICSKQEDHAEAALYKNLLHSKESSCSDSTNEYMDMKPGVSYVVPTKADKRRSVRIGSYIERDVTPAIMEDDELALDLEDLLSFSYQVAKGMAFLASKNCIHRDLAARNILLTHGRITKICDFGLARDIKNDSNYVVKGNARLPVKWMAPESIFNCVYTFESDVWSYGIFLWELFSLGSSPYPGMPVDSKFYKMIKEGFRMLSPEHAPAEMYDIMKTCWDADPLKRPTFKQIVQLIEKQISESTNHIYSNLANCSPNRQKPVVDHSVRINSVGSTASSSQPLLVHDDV
Serine/threonine-protein kinase PAK 5 (Homo sapiens), sequence (Q9P286 whole entry, looked up): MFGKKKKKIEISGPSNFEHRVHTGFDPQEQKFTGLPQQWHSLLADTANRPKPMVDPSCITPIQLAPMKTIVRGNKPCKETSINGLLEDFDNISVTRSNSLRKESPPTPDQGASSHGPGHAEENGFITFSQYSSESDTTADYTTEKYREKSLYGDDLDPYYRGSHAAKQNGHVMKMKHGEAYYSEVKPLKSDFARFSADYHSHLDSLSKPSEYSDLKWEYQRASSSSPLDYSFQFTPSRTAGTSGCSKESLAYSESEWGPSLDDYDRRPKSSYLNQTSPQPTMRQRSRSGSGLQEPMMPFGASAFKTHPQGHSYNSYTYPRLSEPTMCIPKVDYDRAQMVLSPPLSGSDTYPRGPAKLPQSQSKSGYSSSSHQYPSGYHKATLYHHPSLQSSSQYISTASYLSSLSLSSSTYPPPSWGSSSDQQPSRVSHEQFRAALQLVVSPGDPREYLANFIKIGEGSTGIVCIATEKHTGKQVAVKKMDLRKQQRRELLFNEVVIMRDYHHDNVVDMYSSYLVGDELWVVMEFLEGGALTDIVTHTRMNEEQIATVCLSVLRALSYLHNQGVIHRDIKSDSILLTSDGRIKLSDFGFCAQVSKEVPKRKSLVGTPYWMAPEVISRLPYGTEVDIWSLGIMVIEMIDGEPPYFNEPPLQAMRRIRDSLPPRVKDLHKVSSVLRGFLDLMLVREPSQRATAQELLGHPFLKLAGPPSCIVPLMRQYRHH

Cc1nc(N2CC[C@@H](O)C2)ncc1-c1cc(C(F)(F)F)cc2[nH]ncc12 [TP-004]
active: IC50 [27] 0.031 µM
4.54 µM: Ki [12]
inactive: residual activity [1] 81% | residual activity [2] 100% | residual activity [3] 88% | residual activity [4] 89% | residual activity [5] 100% | residual activity [6] 99% | residual activity [7] 100% | residual activity [8] 100% | residual activity [9] 73% | inhibition [10] -2.13% | residual activity [11] 54% | residual activity [13] 100% | residual activity [14] 99% | residual activity [15] 67% | residual activity [16] 100% | residual activity [17] 97% | residual activity [18] 100% | residual activity [19] 91% | residual activity [20] 100% | residual activity [21] 99% | residual activity [22] 76% | residual activity [23] 69% | residual activity [24] 63% | residual activity [25] 100% | inhibition [26] 15.7% | residual activity [28] 84% | residual activity [29] 92% | residual activity [30] 94% | residual activity [31] 95% | residual activity [32] 100% | residual activity [33] 96% | residual activity [34] 88% | residual activity [35] 100% | residual activity [36] 70% | residual activity [37] 100% | inhibition [38] 12% | residual activity [39] 89% | inhibition [40] 12.5% | residual activity [41] 98% | residual activity [42] 83% | residual activity [43] 77% | residual activity [44] 90% | residual activity [45] 100% | residual activity [46] 75%
